Measured values: US20060100431A1, “Biologically active compounds” (Amura Therapeutics Limited, priority 2002, published 2006)

Tests used:
Format in all cases: biochemical
Wild-type cruzipain = Wild-type cruzipain (Trypanosoma cruzi, UniProt P25779); assay: Trypanosoma cruzi cruzipain peptidase activity assay (Ki); conditions: read-out: Ki, inhibitors of cruzain and cruzipains
Summary of the method: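 Native cruzipain from T. cruzi Dm28 epimastigotes, 2.5 nM, in 100 mM sodium phosphate pH 6.75 with 1 mM EDTA and 10 mM L-cysteine, 25 °C, DMSO <1%. Rates taken from continuous fluorogenic substrate read; Ki by regression assuming reversible pure-competitive inhibition.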

human cathepsin L = biological target: T1, human cathepsin L (Homo sapiens, UniProt P07711); assay: Cathepsin L peptidase activity assay (Ki); conditions: read-out: Ki, inhibitors of cathepsin L
T1 construct: purchased CN Biosciences
T1 sequence (P07711 114-333): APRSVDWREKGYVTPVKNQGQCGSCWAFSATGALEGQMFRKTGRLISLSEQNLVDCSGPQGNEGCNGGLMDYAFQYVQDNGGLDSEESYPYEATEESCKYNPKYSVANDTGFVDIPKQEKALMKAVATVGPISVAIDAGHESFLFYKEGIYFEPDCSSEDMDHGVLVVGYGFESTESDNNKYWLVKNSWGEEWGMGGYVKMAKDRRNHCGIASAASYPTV
Description: Unless otherwise stated, all general chemicals and biochemicals were purchased from either the Sigma Chemical Company, Poole, Dorset, U.K or from Fisher Scientific UK, Loughborough, Leicestershire, U.K. Absorbance assays were carried out in flat-bottomed 96-well plates (Spectra; Greiner Bio-One Ltd., Stonehouse, Gloucestershire, U.K.) using a SpectraMax PLUS384 plate reader (Molecular Devices, Crawley, U.K.). Fluorescence high throughput assays were carried out in either 384-well microtitre plates (Corning Costar 3705 plates, Fisher Scientific) or 96-well ‘U’ bottomed Microfluor W1 microtitre plates (Thermo Labsystems, Ashford, Middlesex, U.K.). Fluorescence assays were monitored using a SpectraMax Gemini fluorescence plate reader (Molecular Devices). For substrates employing either a 7-amino-4-methylcoumarin (AMC) or a 7-amino-4-trifluoromethylcoumarin (AFC) fluorophore, assays were monitored at an excitation wavelength of 365 nm and an emission wavelength of 450 nm and the fluorescence plate reader calibrated with AMC. For substrates employing a 3-amino-benzoyl (Abz) fluorophore, assays were monitored at an excitation wavelength of 310 nm and an emission wavelength of 445 nm; the fluorescence plate reader calibrated with 3-amino-benzamide (Fluka). Unless otherwise indicated, all the peptidase substrates were purchased from Bachem UK, St Helens, Merseyside, UK. Substrates utilizing fluorescence resonance energy transfer methodology (i.e. FRET-based substrates) were synthesized at Incenta Limited using published methods (Atherton & Sheppard, Solid Phase Peptide Synthesis, IRL Press, Oxford, U.K, 1989) and employed Abz (2-aminobenzoyl) as the fluorescence donor and 3-nitro-tyrosine [Tyr(NO2)] as the fluorescence quencher (Meldal, M. and Breddam, K., Anal. Biochem, 195, 141-147, 1991). Hydroxyethylpiperazine ethanesulfonate (HEPES), tris-hydroxylmethyl aminomethane (tris) base, bis-tris-propane and all the biological detergents (e.g. CHAPS, zwittergents, etc.) were purchased from CN Biosciences UK, Beeston, Nottinghamshire, U.K. Glycerol was purchased from Amersham Pharmacia Biotech, Little Chalfont, Buckinghamshire, U.K. Stock solutions of substrate or inhibitor were made up to 10 mM in 100% dimethylsulfoxide (DMSO) (Rathburns, Glasgow, U.K.) and diluted as appropriately required. In all cases the DMSO concentration in the assays was maintained at less than 1% (vol./vol.).
Assay protocols were based on literature precedent (Table 4; Barrett, A. J., Rawlings, N. D. and Woessner, J. F., 1998, Handbook of Proteolytic Enzymes, Academic Press, London and references therein) and modified as required to suit local assay protocols. Enzyme was added as required to initiate the reaction and the activity, as judged by the change in fluorescence upon conversion of substrate to product, was monitored over time. All assays were carried out at 25±1° C.
Bovine cathepsin S, human cathepsin L, human cathepsin H and human cathepsin B were obtained from CN Biosciences. Recombinant human cathepsin S, human cathepsin K and human cathepsin X were obtained from Dr. Boris Turk (Josef Stefan Institute, Ljubljana, Slovenia). Unless otherwise stated, all peptidase activity assays were carried out in 10 mM bis-tris-propane (BTP), pH 6.5 containing 1 mM EDTA, 5 mM 2-mercaptoethanol and 1 mM CaCl2. Human cathepsin H activity assays were carried out in 10 mM BTP pH 6.5, 142 mM NaCl2, 1 mM CaCl2, 1 mM EDTA, 1 mM DTT, 0.035 mM Zwittergent 3-16. Human cathepsin K assays were carried out in 100 mM sodium acetate; pH 5.5 containing 20 mM L-cysteine and 1 mM EDTA (Bossard, M. J., et. al., J. Biol. Chem., 21, 12517-12524, 1996). Human cathepsin X assays were carried out in 100 mM sodium acetate; pH 5.5 containing 20 mM L-cysteine; 0.05% (w/v) Brij 35 and 1 mM EDTA (Santamaria, I., et. al., J. Biol. Chem., 273, 16816-16823, 1998; Klemencic, J, et al., Eur. J. Biochem., 267, 5404-5412, 2000). […]

CPB2.8ΔCTE = biological target: T2, CPB2.8ΔCTE (Leishmania mexicana, UniProt P36400); assay: Leishmania mexicana cysteine protease B (CPB) peptidase activity assay (Ki); conditions: Ki, inhibitors of Leismania mexicana CPB protease
T2 construct: Wild-type recombinant CPB without the C-terminal extention (i.e. CPB2.8ΔCTE); Dr. Jeremy Mottram (Wellcome Centre for Molecular Parasitology, University of Glasgow)
T2 sequence (P36400 126-343, stated change not applied): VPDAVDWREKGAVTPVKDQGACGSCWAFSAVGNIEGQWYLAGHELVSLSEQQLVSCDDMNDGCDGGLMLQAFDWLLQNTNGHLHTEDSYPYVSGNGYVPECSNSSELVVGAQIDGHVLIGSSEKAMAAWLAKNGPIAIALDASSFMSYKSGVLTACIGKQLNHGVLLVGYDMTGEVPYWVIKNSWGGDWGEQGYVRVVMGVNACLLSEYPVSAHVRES
Summary of the method: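 Recombinant CPB2.8ΔCTE (0.25 nM) was assayed in 100 mM sodium acetate pH 5.5 with 1 mM EDTA, 200 mM NaCl and 10 mM DTT at 25 °C, DMSO <1%, enzyme added to start. Rates were taken from continuous fluorescence slopes; apparent Ki was fitted assuming reversible, pure-competitive inhibition.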

Wild-type cruzipain, sequence (P25779 whole entry): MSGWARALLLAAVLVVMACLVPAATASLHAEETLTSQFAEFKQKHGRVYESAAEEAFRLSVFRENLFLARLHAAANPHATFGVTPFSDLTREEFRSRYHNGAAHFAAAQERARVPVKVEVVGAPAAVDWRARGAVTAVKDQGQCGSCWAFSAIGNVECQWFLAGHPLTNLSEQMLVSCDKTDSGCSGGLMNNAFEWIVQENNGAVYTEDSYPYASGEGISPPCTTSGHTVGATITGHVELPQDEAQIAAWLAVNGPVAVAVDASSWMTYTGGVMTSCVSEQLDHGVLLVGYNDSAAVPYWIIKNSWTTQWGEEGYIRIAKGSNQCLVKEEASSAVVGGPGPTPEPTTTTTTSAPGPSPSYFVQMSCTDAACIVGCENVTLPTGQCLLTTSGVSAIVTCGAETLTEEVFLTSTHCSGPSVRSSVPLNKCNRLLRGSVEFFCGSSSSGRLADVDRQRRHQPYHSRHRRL

Ki (human cathepsin L) [µM]	Compound	Ki (Wild-type cruzipain) [µM]	Ki (CPB2.8ΔCTE) [µM]
< 5	CC(C)C[C@H](NC(=O)c1ccc2ccccc2n1)C(=O)N1CC[C@@H]2[C@H]1C(=O)CN2C(=O)c1cccnc1 [Example 18, (3aR,6aS)-Quinoline-2-carboxylic acid {(1S)-3-methyl-1-[6-oxo-4-(pyridine-3-carbonyl)-hexahydro-pyrrolo[3,2-b]pyrrole-1-carbonyl]-butyl}-amide]	< 5	
< 5	O=C(N[C@@H](CC1CCCCC1)C(=O)N1CC[C@@H]2[C@H]1C(=O)CN2C(=O)c1ccccc1)C(c1ccccc1)c1ccccc1 [Example 270, (3aR,6aS)-N-[(1S)-2-(4-Benzoyl-6-oxo-hexahydro-pyrrolo[3,2-b]pyrrol-1-yl)-1-cyclohexylmethyl-2-oxo-ethyl]-2,2-diphenyl-acetamide]		
< 5	O=C(N[C@@H](CSCc1ccccc1)C(=O)N1CC[C@@H]2[C@H]1C(=O)CN2C(=O)c1ccsc1)c1ccsc1 [Example 272, (3aR,6aS)-Thiophene-3-carboxylic acid {(1R)-1-benzylsulfanylmethyl-2-oxo-2-[6-oxo-4-(thiophene-3-carbonyl)-hexahydro-pyrrolo[3,2-b]pyrrol-1-yl]-ethyl}-amide]		
< 5	O=C1CN(C(=O)c2ccccc2)[C@@H]2CCN(C(=O)[C@H](CC3CCCCC3)NC(=O)N3CCOCC3)[C@H]12 [Example 280, (3aR,6aS)-Morpholine-4-carboxylic acid [(1S)-2-(4-benzoyl-6-oxo-hexahydro-pyrrolo[3,2-b]pyrrole-1-yl)-1-cyclohexylmethyl-2-oxo-ethyl]-amide]		
< 5	O=C(N[C@@H](CSCc1ccccc1)C(=O)N1CC[C@@H]2[C@H]1C(=O)CN2C(=O)c1ccccc1)c1ccccc1 [Example 285, (3aR,6aS)-N-[(1R)-2-(4-Benzoyl-6-oxo-hexahydro-pyrrolo[3,2-b]pyrrol-1-yl)-1-benzylsulfanylmethyl-2-oxo-ethyl]-benzamide]		
< 5	O=C(N[C@@H](CC1CCCCC1)C(=O)N1CC[C@@H]2[C@H]1C(=O)CN2C(=O)c1ccccc1)c1ccoc1 [Example 289, (3aR,6aS)-Furan-3-carboxylic acid [(1S)-2-(4-benzoyl-6-oxo-hexahydro-pyrrolo[3,2-b]pyrrole-1-yl)-1-cyclohexylmethyl-2-oxo-ethyl]-amide]		
< 5	Cc1ccc(C(=O)N2CC(=O)[C@@H]3[C@H]2CCN3C(=O)[C@H](CC2CCCCC2)NC(=O)c2ccsc2)cc1 [Example 293, (3aR,6aS)-Thiophene-3-carboxylic acid {(1S)-1-cyclohexylmethyl-2-[4-(4-methyl-benzoyl)-6-oxo-hexahydro-pyrrolo[3,2-b]pyrrol-1-yl]-2-oxo-ethyl}-amide]		
< 5	CN(C)c1ccc(C(=O)N[C@@H](Cc2ccc(O)cc2)C(=O)N2CC[C@@H]3[C@H]2C(=O)CN3C(=O)c2ccccc2)cc1 [Example 356, (3aR,6aS)-N-[(1S)-2-(4-Benzoyl-6-oxo-hexahydro-pyrrolo[3,2-b]pyrrol-1-yl)-1-(4-hydroxy-benzyl)-2-oxo-ethyl)-4-dimethylamino-benzamide]		
< 5	CN(C)c1ccc(C(=O)N[C@@H](Cc2ccc(O)cc2)C(=O)N2CC[C@@H]3[C@H]2C(=O)CN3C(=O)c2cccc(S(C)(=O)=O)c2)cc1 [Example 358, (3aR,6aS)-4-Dimethylamino-N-{(1S)-1-(4-hydroxy-benzyl)-2-[4-(3-methanesulfonyl-benzoyl)-6-oxo-hexahydro-pyrrolo[3,2-b]pyrrol-1-yl]-2-oxo-ethyl}-benzamide]		

The remaining lines, values behind:

Compound	Ki (human cathepsin L) [µM]	Ki (Wild-type cruzipain) [µM]	Ki (CPB2.8ΔCTE) [µM]
Nc1ccc(C(=O)N2CC(=O)[C@@H]3[C@H]2CCN3C(=O)[C@H](CSCc2ccccc2)NC(=O)c2ccsc2)cc1 [Example 268, (3aR,6aS)-Thiophene-3-carboxylic acid {(1R)-2-(4-(4-amino-benzoyl)-6-oxo-hexahydro-pyrrolo[3,2-b]pyrrol-1-yl]-1-benzylsulfanylmethyl-2-oxo-ethyl}-amide]	< 5		
O=C(N[C@@H](CSCc1ccccc1)C(=O)N1CC[C@@H]2[C@H]1C(=O)CN2C(=O)c1ccccc1)c1cccs1 [Example 282, (3aR,6aS)-Thiophene-2-carboxylic acid [(1R)-2-(4-benzoyl-6-oxo-hexahydro-pyrrolo[3,2-b]pyrrole-1-yl)-1-benzylsulfanylmethyl-2-oxo-ethyl]-amide]	< 5		
Cc1ccccc1C(=O)N1CC(=O)[C@@H]2[C@H]1CCN2C(=O)[C@H](CC1CCCCC1)NC(=O)c1ccsc1 [Example 291, (3aR,6aS)-Thiophene-3-carboxylic acid {(1S)-1-cyclohexylmethyl-2-[4-(2-methyl-benzoyl)-6-oxo-hexahydro-pyrrolo[3,2-b]pyrrol-1-yl]-2-oxo-ethyl}-amide]	< 5		
NCc1cccc(C(=O)N[C@@H](Cc2ccc(O)cc2)C(=O)N2CC[C@@H]3[C@H]2C(=O)CN3C(=O)c2csc3ccccc23)c1 [Example 331, (3aR,6aS)-3-Aminomethyl-N-[(1S)-2-[4-(benzo[b]thiophene-3-carbonyl)-6-oxo-hexahydro-pyrrolo[3,2-b]pyrrole-1-yl]-1-(4-hydroxy-benzyl)-2-oxo-ethyl]-benzamide]		< 5	< 5
CS(=O)(=O)c1ccccc1C(=O)N1CC(=O)[C@@H]2[C@H]1CCN2C(=O)[C@H](Cc1ccc(O)cc1)NC(=O)c1cccc(CN)c1 [Example 332, (3aR,6aS)-3-Aminomethyl-N-{(1S)-1-(4-hydroxy-benzyl)-2-[4-(2-methanesulfonyl-benzoyl)-6-oxo-hexahydro-pyrrolo[3,2-b]pyrrole-1-yl]-2-oxo-ethyl}-benzamide]		< 5	< 5
CC(=O)N[C@@H](CC(C)C)C(=O)N1CC(=O)[C@@H]2[C@H]1CCN2C(=O)[C@H](Cc1ccc(O)cc1)NC(=O)c1cccc(Br)c1 [Example 345, (3aR,6aS)-N-[(1S)-2-[4-((2S)-2-Acetylamino-4-methyl-pentanoyl)-6-oxo-hexahydro-pyrrolo[3,2-b]pyrrol-1-yl]-1-(4-hydroxy-benzyl)-2-oxo-ethyl]-3-bromo-benzamide]		< 5	< 5
CN(C)c1ccc(C(=O)N[C@@H](Cc2ccc(O)cc2)C(=O)N2CC[C@@H]3[C@H]2C(=O)CN3C(=O)c2ccccc2S(C)(=O)=O)cc1 [Example 357, (3aR,6aS)-4-Dimethylamino-N-{(1S)-1-(4-hydroxy-benzyl)-2-[4-(2-methanesulfonyl-benzoyl)-6-oxo-hexahydro-pyrrolo[3,2-b]pyrrole-1-yl]-2-oxo-ethyl}-benzamide]	< 5		
CN(C)c1ccc(C(=O)N[C@@H](Cc2ccc(O)cc2)C(=O)N2CC[C@@H]3[C@H]2C(=O)CN3C(=O)c2cccs2)cc1 [Example 359, (3aR,6aS)-4-Dimethylamino-N-{(1S)-1-(4-hydroxy-benzyl)-2-oxo-2-[6-oxo-4-(thiophene-2-carbonyl)-hexahydro-pyrrolo[3,2-b]pyrrol-1-yl]-ethyl}-benzamide]	< 5		
